The nature of this data set: hygroscopicity. The settings on record: crystals from acetone/ether, monohydrate. Format: physicochemical.

Turning to `C=C(COC(=O)CCCCCC[n+]1ccsc1)COC(=O)NCCCCCCCCCCCCCCCCCC` [Example 46, 1-Octadecylaminocarbonyloxy-3-[7-(3-thiazolio)heptanoyloxy]-2-methylenepropane bromide], the hygroscopicity entry is listed as “Hygroscopic”.

The values are drawn from US4945098A, “Novel propane-1,3-diol derivatives and use” (Leo Pharmaceutical Products Ltd. A/S (Lovens Kemiske Fabrik, priority 1985, dated 1990).
